The text below walks through data of paper PMC4257840 (Journal of Medicinal Chemistry, 2014).

Common to all, as to assay type: biochemical
In assay [1] the target is T1, Human liver cathepsin L (Homo sapiens, UniProt P07711).
T1 construct: Human liver cathepsin L was used as the; from tissue; host or cells: human liver
In words: Protease counter-screening: Cathepsin L. For orientation: Counterscreens check selectivity or assay interference.

The target in assay [2] is T2, Human recombinant cathepsin L2 (Homo sapiens, UniProt O60911).
T2 construct: host or cells: NS0 cells
T2 sequence (O60911 114-334): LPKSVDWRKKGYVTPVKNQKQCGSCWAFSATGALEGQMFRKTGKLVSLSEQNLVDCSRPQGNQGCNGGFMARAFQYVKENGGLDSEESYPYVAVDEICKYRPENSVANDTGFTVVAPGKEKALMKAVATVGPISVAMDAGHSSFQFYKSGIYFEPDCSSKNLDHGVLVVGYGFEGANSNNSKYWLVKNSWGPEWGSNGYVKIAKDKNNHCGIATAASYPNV
Description: Protease counter-screening: Cathepsin L2. On the procedure: (§1) Appendix 7. Protease Counter -Screening
(§2) Protease counter-screeni ng was performed using the methods described below. Initial screening was conducted in duplicate using a single test substance concentration of 10 µ M .
(§3) Additional assays were conducted in replicate for selected pairin gs of test s ubstance and enz yme in order to enable the determination of IC50 values using conventional procedures.
(§4) Determination of K i was made using the Batch K i program (Biokin Ltd, Pullman, WA) to derive values from the Morrison equation: […]
(§5) Where [E ] is the active enz yme concentration, Kiapp is the apparent inhibition const ant, v 0 is the control velocit y in the absence of inhibitors, vb is the background velocity, v is the initial reaction velocit y in the presence of inhibitor, and I is the inhibitor concentration.Thence:
Where [S ] is the substrate concentration and KM is the Michealis constant.
Caspase 1: Activity against human recombinant caspase 1 expressed in E. coli was tested using Ac-YVAD- AMC as the substrate. Test compound or vehicle was pre- incubated with 600 […]
followed by excitation/emission at 485/535 nm. […]
AMC formation was read at 360 nm/465 nm.
Cathepsin L2: Human recombinant cathepsin L2 expressed in NS0 cells was used as the enzyme source. […] Form ation of AMC was measured at 360 […]
The amount of AMC formed was read spectrofluorimetricall y at 360 nm/465 nm. […]

Assay [3] has as its target T3, Factor Xa from human plasma (Homo sapiens, UniProt P00742).
T3 construct: containing 0.4 nM Factor Xa from human plasma; from tissue; host or cells: human plasma
Description: Protease counter-screening: Factor Xa. On the procedure:
as §1, §2, §3, §4, §5
Where [S ] is the substrate concentration and KM is the Michealis constant. […]
Test compound or vehicle was pre- incubated with 600 […]
The reaction was […]
initiated by addition of 1 µM N-CH3-SO2-D-FGR-pNA for another 120 min incubation period.
The amount of pNA formed was read spectrophotometricall y at 405 nm.
Factor Xa: Test compound or vehicle was pre -incubated for 15 min at 25 °C in modified 50 mM Tris-HCl buffer pH 7.6 containing 0.4 nM Factor Xa from human plasma. The reaction was initiated by addition of 0.3 mM N-a-Z-D-RGR-pNA for another 60 min incubation period. […]

The target in assay [4] is T4, Human recombinant MMP-9 (Homo sapiens, UniProt P14780).
T4 construct: host or cells: mammalian cells
T4 sequence (P14780 107-707 limits assumed): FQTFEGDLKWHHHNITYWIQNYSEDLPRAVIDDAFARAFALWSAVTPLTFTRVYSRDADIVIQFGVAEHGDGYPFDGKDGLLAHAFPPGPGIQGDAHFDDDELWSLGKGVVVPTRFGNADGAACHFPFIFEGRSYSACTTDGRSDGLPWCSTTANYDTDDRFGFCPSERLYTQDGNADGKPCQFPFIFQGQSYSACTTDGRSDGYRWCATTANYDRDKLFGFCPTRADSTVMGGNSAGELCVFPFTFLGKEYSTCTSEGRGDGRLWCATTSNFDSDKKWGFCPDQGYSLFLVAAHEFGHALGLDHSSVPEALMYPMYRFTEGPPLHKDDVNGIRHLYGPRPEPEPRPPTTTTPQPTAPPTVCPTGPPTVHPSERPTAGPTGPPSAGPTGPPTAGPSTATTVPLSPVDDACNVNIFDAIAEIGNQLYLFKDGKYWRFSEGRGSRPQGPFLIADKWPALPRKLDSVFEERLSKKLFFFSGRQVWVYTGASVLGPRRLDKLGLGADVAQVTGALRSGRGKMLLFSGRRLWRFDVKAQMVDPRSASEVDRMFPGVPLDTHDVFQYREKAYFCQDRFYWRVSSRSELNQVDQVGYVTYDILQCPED
In words: Protease counter-screening: MMP-9. How it is done:
as §1, §2, §3, §4
(§6) MMP-9: Human recombinant MMP-9 proenz yme ex pressed in mammalian cells was activated with APMA for 60 min at 37 °C. […] The amount of MCA-P LG formed was read spectrofluorimetricall y at 340 nm/400 nm.
(§7) ADAM-17/TACE: Human recombinant ADAM-17 expressed in Sf21 insect cells was used as enz yme sour ce. […] T he amount of MCA-P LAQA formed w as read spectro fluorimetricall y at 340 nm/400 nm.
(§8) Angiotensin converting enzyme: Test compound or vehicle was pre- incubated in modified HEPES buffer pH 7.5 for 15 min at 25 °C with 31 mU/mL angiotensin converting enz yme from rabbit lung. […] The amount of substrate remaining was read spectrophotometricall y at 340 nm and used to deri ve the extent of reaction and its inhibition. […]

For assay [5], the target named is T5, Human recombinant ADAM-17 (Homo sapiens, UniProt P78536).
T5 construct: host or cells: Sf21 insect cells
T5 sequence (P78536 215-824): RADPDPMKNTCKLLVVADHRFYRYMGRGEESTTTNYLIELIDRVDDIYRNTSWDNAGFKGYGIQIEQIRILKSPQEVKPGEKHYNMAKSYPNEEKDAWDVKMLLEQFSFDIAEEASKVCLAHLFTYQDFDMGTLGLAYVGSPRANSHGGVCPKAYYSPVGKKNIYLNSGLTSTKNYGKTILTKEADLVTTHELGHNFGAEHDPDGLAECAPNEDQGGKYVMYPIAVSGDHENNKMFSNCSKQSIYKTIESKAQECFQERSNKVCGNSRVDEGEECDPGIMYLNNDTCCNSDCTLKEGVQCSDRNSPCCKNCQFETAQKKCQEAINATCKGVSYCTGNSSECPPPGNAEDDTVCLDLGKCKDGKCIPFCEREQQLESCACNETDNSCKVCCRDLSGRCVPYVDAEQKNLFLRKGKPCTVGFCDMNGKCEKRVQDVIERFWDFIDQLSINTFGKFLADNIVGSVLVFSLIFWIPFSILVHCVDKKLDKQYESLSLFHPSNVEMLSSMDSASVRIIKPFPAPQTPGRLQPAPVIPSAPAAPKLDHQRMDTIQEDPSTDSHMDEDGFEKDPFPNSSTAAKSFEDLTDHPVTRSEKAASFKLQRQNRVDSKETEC
In words: Protease counter-screening: ADAM-17/TACE. On the procedure: as §1, §2, §3, §4, §6, §7, §8

T3 sequence (P00742 235-488 limits assumed): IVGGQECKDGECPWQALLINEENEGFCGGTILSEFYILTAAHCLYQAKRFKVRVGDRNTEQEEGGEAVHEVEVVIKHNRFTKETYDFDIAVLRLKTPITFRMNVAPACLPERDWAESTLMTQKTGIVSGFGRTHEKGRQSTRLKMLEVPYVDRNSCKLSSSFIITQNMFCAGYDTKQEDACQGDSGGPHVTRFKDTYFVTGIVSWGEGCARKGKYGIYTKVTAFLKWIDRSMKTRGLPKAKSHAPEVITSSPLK
T3 sequence (P00742 41-179 limits assumed): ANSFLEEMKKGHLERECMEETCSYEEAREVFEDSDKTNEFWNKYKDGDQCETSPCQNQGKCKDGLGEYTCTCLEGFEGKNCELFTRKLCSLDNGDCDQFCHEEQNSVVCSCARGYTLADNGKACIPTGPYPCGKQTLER
T1 sequence (P07711 114-333): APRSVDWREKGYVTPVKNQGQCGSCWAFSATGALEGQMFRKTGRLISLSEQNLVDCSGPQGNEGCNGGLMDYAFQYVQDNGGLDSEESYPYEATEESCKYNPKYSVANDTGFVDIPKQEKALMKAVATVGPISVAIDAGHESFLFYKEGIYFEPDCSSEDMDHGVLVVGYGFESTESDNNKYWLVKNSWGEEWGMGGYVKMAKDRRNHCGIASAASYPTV

One may read the inhibition as how much of the control response was suppressed. As usually defined, the IC50 is the point on the concentration scale where inhibition reaches its midpoint. On to `CC(C)[C@H](NC(=O)[C@H](C)NC(=O)[C@@H](NC(=O)c1ccccc1)C(C)(C)C)C(=O)C(=O)NCc1ccccc1` [Compound 38, N-{(S)-1-[(S)-1-((S)-1-Benzylaminooxalyl-2-methyl-propylcarbamoyl)-ethylcarbamoyl]-2,2-dimethyl-propyl}-benzamide], for which the inhibition at 10 µM is 34% in assay [1], 7% in assay [3], 5% in assay [4] and 0% in assay [5]. Further, the half-inhibitory concentration (IC50) in assay [2] was 3.53 µM.
